From ChEMBL document CHEMBL1134095, “Biaryl ether retrohydroxamates as potent, long-lived, orally bioavailable MMP inhibitors” (Bioorg Med Chem Lett, 2001)

Legend:
[1] = target: Stromelysin-1 (Homo sapiens, UniProt P08254); assay: In vitro inhibition of Matrix metalloprotease-3
[2] = Area under curve determined after peroral administration at a dose of 3 mg/kg in cynomolgus monkey; type: ADME, organism-based, Macaca fascicularis; design: dose 3 mg/kg, route oral; settings: in vivo, po
[3] = Area under curve determined after intravenous administration at a dose of 3 mg/kg in cynomolgus monkey; type: ADME, organism-based, Macaca fascicularis; design: dose 3 mg/kg, route intravenous; settings: in vivo
[4] = Oral bioavailability in cynomolgus monkey; type: ADME, organism-based, Macaca fascicularis; settings: in vivo
[5] = target: T1, Interstitial collagenase (Homo sapiens, UniProt P03956); assay: In vitro inhibition of Matrix metalloprotease-1.
T1 sequence (P03956 whole entry): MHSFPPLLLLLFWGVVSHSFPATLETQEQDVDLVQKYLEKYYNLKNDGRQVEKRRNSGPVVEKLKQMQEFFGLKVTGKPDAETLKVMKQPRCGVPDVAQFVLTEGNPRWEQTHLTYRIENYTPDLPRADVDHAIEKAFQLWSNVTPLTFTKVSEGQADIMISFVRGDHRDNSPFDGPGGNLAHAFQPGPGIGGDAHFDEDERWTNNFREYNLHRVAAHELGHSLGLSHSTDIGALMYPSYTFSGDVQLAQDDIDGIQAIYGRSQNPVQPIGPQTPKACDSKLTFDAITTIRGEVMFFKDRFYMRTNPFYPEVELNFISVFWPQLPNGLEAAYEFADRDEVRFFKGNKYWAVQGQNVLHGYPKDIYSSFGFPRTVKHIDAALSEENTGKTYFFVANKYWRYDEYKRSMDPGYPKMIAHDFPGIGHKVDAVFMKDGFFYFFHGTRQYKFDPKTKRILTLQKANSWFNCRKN

[6] = Half life determined after intravenous administration at a dose of 3 mg/kg in cynomolgus monkey; type: ADME, organism-based, Macaca fascicularis; design: dose 3 mg/kg, route intravenous; settings: in vivo
[7] = target: 72 kDa type IV collagenase (Homo sapiens, UniProt P08253); assay: In vitro inhibition of Matrix metalloprotease-2
72 kDa type IV collagenase, sequence (P08253 whole entry): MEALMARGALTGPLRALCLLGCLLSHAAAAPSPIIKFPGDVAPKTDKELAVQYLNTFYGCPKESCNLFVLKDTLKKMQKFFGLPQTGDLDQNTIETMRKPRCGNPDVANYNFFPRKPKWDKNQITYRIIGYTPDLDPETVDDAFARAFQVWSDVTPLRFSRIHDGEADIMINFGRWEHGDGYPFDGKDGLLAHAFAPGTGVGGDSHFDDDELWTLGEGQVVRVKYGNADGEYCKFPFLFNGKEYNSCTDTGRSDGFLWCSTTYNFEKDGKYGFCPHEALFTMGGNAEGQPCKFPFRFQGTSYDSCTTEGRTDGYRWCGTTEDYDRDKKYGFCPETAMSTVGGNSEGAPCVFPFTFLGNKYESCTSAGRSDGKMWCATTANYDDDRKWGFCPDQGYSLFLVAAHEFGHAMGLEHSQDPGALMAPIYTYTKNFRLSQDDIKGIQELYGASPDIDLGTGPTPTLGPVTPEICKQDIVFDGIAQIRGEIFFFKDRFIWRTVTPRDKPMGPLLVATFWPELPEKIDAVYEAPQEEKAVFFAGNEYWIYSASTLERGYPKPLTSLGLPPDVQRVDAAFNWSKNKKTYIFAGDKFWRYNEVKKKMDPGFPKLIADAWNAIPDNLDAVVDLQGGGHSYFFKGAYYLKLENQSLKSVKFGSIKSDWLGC

[8] = Half life after iv administration in cynomolgus monkey; type: ADME, organism-based, Macaca fascicularis; settings: in vivo
[9] = Area under curve determined after peroral administration at a dose of 10 mg/kg in cynomolgus monkey; type: ADME, organism-based, Macaca fascicularis; design: dose 10 mg/kg, route oral; settings: in vivo, po
[10] = Bioavailability determined after oral administration in marmoset; type: ADME, organism-based; settings: callitrichinae sp., in vivo
[11] = Oral Bioavailability in rat; type: ADME, organism-based; settings: in vivo
[12] = Half life determined in rat by intravenous administration; type: ADME, organism-based; settings: in vivo

Stromelysin-1, sequence (P08254 whole entry): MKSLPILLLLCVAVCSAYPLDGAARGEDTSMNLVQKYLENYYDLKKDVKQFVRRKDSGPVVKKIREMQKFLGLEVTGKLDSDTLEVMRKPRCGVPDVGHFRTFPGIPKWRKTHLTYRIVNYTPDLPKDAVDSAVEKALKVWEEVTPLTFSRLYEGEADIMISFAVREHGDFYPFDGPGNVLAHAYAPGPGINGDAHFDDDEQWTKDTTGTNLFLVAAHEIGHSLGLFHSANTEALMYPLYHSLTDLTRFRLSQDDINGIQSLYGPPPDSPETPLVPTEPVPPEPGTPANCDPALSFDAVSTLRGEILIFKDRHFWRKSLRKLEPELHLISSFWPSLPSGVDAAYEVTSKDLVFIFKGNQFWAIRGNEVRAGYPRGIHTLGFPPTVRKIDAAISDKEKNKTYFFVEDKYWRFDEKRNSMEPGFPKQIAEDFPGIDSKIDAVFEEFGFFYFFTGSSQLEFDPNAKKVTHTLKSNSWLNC

Row | SMILES | IC50 [1] | IC50 [5] | half-life [6] | IC50 [7] | further results
1 | N#Cc1ccc(-c2ccc(OCC(CN3C(=O)CNC3=O)N(O)C=O)cc2)cc1 (stereo unspecified) | 14 nM | 2400 nM | 7.3 h | 8200 nM | AUC [2]: 68 uM hr l-1; AUC [3]: 59.8 uM hr l-1; bioavailability [4]: 100%
2 | CC1(C)NC(=O)N(CCC(COc2ccc(-c3ccc(C#N)cc3)cc2)N(O)C=O)C1=O (stereo unspecified) | 35 nM | 14000 nM | 12.7 h | 6900 nM | AUC [2]: 2.4 uM hr l-1; AUC [3]: 47.5 uM hr l-1; bioavailability [4]: 6%
3 | N#Cc1ccc(-c2ccc(OCC(COc3ccccc3)N(O)C=O)cc2)cc1 (stereo unspecified) | 130 nM | > 10000 nM |  |  | half-life [8]: < 1 h
4 | N#Cc1ccc(-c2ccc(OCCNC(=O)NO)cc2)cc1 | 80 nM | > 50 nM |  | > 100000 nM | 
5 | N#Cc1ccc(-c2ccc(OCC(c3ccc(F)cc3)N(O)C=O)cc2)cc1 (stereo unspecified) | 300 nM | > 10000 nM |  |  | half-life [8]: < 1 h
6 | CN1C(=O)N(CCC(COc2ccc(-c3ccc(C#N)cc3)cc2)N(O)C=O)C(=O)C1(C)C (stereo unspecified) | 17 nM | > 10000 nM | 0.5 h | 45000 nM | AUC [3]: 8 uM hr l-1; bioavailability [4]: 6%; AUC [9]: 1.8 uM hr l-1
7 | N#Cc1ccc(-c2ccc(OCC(CN3C(=O)c4ccccc4C3=O)N(O)C=O)cc2)cc1 (stereo unspecified) | 21 nM | > 10000 nM | 0.3 h | 37000 nM | 
8 | Cc1ccc(=O)n(CC(COc2ccc(-c3ccc(C#N)cc3)cc2)N(O)C=O)n1 (stereo unspecified) | 37 nM | 4200 nM | 0.5 h | 3400 nM | 
9 | N#Cc1ccc(-c2ccc(OCC(CN3C(=O)CCC3=O)N(O)C=O)cc2)cc1 (stereo unspecified) | 11 nM | > 10000 nM | 0.6 h | 5200 nM | 
10 | N#Cc1ccc(-c2ccc(OCC(CSc3ccccc3)N(O)C=O)cc2)cc1 (stereo unspecified) | 36 nM | 4100 nM | 0.3 h |  | half-life [8]: < 1 h
11 | CC1(C)NC(=O)N(CC(COc2ccc(-c3ccc(C#N)cc3)cc2)N(O)C=O)C1=O (stereo unspecified) | 24 nM | 2100 nM | 7.7 h | 7800 nM | AUC [2]: 27.2 uM hr l-1; AUC [3]: 24 uM hr l-1; bioavailability [4]: 110%; bioavailability [10]: 85%
12 | CN1C(=O)N(CC(COc2ccc(-c3ccc(C#N)cc3)cc2)N(O)C=O)C(=O)C1(C)C (stereo unspecified) | 9.1 nM |  | 2.5 h | 58000 nM | AUC [3]: 15.2 uM hr l-1; bioavailability [4]: 23%; AUC [9]: 11.8 uM hr l-1
13 | N#Cc1ccc(-c2ccc(OCC(Cc3ccc(F)cc3)N(O)C=O)cc2)cc1 (stereo unspecified) | 180 nM | 14000 nM |  |  | half-life [8]: < 1 h
14 | CC(=O)N(O)CCOc1ccc(-c2ccc(C#N)cc2)cc1 |  |  |  | 5900 nM | 
15 | CC(C)CC(COc1ccc(-c2ccc(C#N)cc2)cc1)N(O)C=O (stereo unspecified) | 120 nM | > 10000 nM |  |  | half-life [8]: < 1 h
16 | CC(COc1ccc(-c2ccc(C#N)cc2)cc1)C(=O)NO (stereo unspecified) | 45 nM | 2500 nM |  | 19000 nM | bioavailability [11]: 7%; half-life [12]: 0.3 h
17 | CCN1C(=O)N(CC(COc2ccc(-c3ccc(C#N)cc3)cc2)N(O)C=O)C(=O)C1(C)C (stereo unspecified) | 27 nM | 2400 nM | 1.8 h | 12000 nM | AUC [3]: 12.3 uM hr l-1
18 | CC(COc1ccc(-c2ccc(C#N)cc2)cc1)N(O)C=O (stereo unspecified) | 620 nM | > 10000 nM |  | 76000 nM | bioavailability [11]: 33%; half-life [12]: 1.6 h
19 | CC1(C)CC(=O)N(CC(COc2ccc(-c3ccc(C#N)cc3)cc2)N(O)C=O)C(=O)C1 (stereo unspecified) | 37 nM | 360 nM |  | 25000 nM | 
20 | N#Cc1ccc(-c2ccc(OCCC(=O)NO)cc2)cc1 | 0.057 nM | 3.3 nM |  | 32 nM | 
21 | N#Cc1ccc(-c2ccc(OCCC(=O)O)cc2)cc1 | > 10 nM |  |  | 8000 nM | 
22 | N#Cc1ccc(-c2ccc(OCCN(O)C=O)cc2)cc1 | 0.062 nM | > 50 nM |  | 400 nM | 
23 | N#Cc1ccc(-c2ccc(OCCN(O)C(N)=O)cc2)cc1 | > 100 nM | > 50 nM |  | 35000 nM | 
